Consider 13 molecules from publication PMC9355146, “Novel angiotensin-converting enzyme inhibitory peptides from tuna byproducts—milts: Preparation, characterization, molecular docking study, and antioxidant function on H2O2-damaged human umbilical vein endothelial cells” (Frontiers in Nutrition, 2022).

The subject of series [1] is HUVECs. In words: Cytotoxic assay (MTT) on HUVECs. The series is classed as cell-based, human. The conditions noted are these: 50–200 μM, 24 h. The method, then:
The cytotoxic assay was carried out as per the previous method ([54]). HUVECs were cultured at a density of 1 × 10^4 cells/cm^2 to confluence in DMEM at 37°C in a humidified 5% CO2 atmosphere ([8]). The cytotoxicity of TP1–TP10 on HUVECs was measured using MTT assay ([8]). In short, HUVECs in 96-well plates at a density of 1 × 10^4 cells/cm^2 were separately treated with 20 μL samples at 50 and 200 μM, respectively, and cultured for 24 h. Then, 20 μL MTT solution (5 mg/mL) was put in and incubated for 4 h. In the end, DMSO was joined in each well plate, and the absorbance (A) at 490 nm was determined.
Cell viability(%)= (Asample/Acontrol) × 100.

The subject of series [2] is HUVECs. In words: Nitric oxide (NO) production in HUVECs. The class given is cell-based, human. The conditions noted are these: 24 h, mean ± SD, n = 3. On the procedure: (§1) HUVECs were cultured in 96-well plates at a density of 1 × 10^4 cells/cm^2 and treated with Cap (1 μM), NE (0.5 μM), or ACEi peptides (100–200 μM) for 24 h, or incubated with both NE (0.5 μM) and 200 μM ACEi peptides for 24 h. NO and ET-1 contents of HUVECs were determined after 24 h according to the NO and ET-1 assay kits as manufactures' protocol ([54]).

Series [3] deals with HUVECs. In words: Endothelin-1 (ET-1) secretion in HUVECs. The class given is cell-based, human. The conditions noted are these: 24 h, mean ± SD, n = 3. On the procedure:
as §1

In series [4] the test system is H2O2-damaged HUVECs. The class given is cell-based, human. The method, then: The cytotoxic assay was carried out as per the previous method ([54]). […] Then, 20 μL MTT solution (5 mg/mL) was put in and incubated for 4 h. In the end, DMSO was joined in each well plate, and the absorbance (A) at 490 nm was determined. Cell viability(%)= (Asample/Acontrol) × 100. The cytoprotective assay was carried out using the described methods ([55], [56]). In short, HUVECs were cultured in a 96-well plate at a density of 1 × 10^4 cells/cm^2 for 24 h. […] GSH was used as the positive control.

The test system of series [5] is H2O2-damaged HUVECs. In words: MDA level in H2O2-damaged HUVECs. The series is classed as cell-based, human. The conditions noted are these: then H2O2 400 μM for 24 h, mean ± SD, n = 3. The method, then: (§2) The cytoprotective assay was carried out using the described methods ([55], [56]). In short, HUVECs were cultured in a 96-well plate at a density of 1 × 10^4 cells/cm^2 for 24 h. Afterward, the supernatant was aspirated, and 20 μL of ACEi peptides (TP6, TP7, and TP10) with the final concentrations of 100 and 200 μM were added to the protection groups, respectively. […] GSH was used as the positive control.
(§3) The level of ROS was determined on the method described by Cai et al. ([55]) and expressed as % of blank control; the levels of MDA, SOD, and GSH-Px were measured using assay kits in accordance with the manufacturer' protocols and expressed as U/mg prot.

The subject of series [6] is H2O2-damaged HUVECs. In words: SOD level in H2O2-damaged HUVECs. The series is classed as cell-based, human. The conditions noted are these: then H2O2 400 μM for 24 h, mean ± SD, n = 3. On the procedure: as §2, §3
Series [7] concerns H2O2-damaged HUVECs. Put plainly: GSH-Px level in H2O2-damaged HUVECs. The conditions noted are these: then H2O2 400 μM for 24 h, mean ± SD, n = 3. The series is classed as cell-based, human. On the procedure:
as §2, §3

The target of series [8] is T1, Angiotensin-converting enzyme (ACE) (UniProt P12822).
T1 sequence: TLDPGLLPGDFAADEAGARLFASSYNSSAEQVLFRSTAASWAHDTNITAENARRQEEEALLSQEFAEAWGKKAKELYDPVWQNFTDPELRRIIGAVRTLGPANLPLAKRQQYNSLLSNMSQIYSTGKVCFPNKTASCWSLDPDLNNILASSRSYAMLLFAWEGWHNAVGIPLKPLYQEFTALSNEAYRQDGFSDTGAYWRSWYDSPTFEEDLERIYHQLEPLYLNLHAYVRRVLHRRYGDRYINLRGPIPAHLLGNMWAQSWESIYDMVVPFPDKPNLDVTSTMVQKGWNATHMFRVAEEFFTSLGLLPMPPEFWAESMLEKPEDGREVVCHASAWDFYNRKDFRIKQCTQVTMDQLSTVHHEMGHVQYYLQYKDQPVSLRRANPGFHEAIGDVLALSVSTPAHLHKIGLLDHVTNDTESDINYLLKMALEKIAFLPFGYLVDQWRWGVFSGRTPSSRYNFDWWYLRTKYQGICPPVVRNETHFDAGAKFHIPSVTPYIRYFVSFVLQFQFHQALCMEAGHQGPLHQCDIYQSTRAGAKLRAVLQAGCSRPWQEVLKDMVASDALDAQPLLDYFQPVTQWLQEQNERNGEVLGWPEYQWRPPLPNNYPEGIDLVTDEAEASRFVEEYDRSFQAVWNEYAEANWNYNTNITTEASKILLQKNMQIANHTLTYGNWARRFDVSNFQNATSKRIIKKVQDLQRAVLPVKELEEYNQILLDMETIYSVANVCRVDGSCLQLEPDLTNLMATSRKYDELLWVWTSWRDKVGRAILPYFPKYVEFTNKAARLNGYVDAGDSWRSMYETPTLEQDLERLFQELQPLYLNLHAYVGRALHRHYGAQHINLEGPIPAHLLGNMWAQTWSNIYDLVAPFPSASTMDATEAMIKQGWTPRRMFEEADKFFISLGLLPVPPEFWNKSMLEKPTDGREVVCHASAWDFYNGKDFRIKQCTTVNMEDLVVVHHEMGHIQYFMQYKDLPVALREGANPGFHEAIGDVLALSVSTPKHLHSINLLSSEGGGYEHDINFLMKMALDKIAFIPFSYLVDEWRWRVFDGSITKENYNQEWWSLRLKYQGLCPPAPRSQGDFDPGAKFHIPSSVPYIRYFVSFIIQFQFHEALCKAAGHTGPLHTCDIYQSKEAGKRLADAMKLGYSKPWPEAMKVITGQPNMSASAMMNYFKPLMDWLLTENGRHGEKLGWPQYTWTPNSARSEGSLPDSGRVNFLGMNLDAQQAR

Series [9] addresses ACE (Oryctolagus cuniculus, UniProt G1TYT4). The conditions noted are these: cited from earlier work.
Where [10] appears, read: NE 0.5 μM together with peptide 200 μM.

Read-outs that look alike come from different tables or passages of the source. Where a SMILES comes first, the peptide text is derived from it.

ACE, sequence (G1TYT4 1-1284): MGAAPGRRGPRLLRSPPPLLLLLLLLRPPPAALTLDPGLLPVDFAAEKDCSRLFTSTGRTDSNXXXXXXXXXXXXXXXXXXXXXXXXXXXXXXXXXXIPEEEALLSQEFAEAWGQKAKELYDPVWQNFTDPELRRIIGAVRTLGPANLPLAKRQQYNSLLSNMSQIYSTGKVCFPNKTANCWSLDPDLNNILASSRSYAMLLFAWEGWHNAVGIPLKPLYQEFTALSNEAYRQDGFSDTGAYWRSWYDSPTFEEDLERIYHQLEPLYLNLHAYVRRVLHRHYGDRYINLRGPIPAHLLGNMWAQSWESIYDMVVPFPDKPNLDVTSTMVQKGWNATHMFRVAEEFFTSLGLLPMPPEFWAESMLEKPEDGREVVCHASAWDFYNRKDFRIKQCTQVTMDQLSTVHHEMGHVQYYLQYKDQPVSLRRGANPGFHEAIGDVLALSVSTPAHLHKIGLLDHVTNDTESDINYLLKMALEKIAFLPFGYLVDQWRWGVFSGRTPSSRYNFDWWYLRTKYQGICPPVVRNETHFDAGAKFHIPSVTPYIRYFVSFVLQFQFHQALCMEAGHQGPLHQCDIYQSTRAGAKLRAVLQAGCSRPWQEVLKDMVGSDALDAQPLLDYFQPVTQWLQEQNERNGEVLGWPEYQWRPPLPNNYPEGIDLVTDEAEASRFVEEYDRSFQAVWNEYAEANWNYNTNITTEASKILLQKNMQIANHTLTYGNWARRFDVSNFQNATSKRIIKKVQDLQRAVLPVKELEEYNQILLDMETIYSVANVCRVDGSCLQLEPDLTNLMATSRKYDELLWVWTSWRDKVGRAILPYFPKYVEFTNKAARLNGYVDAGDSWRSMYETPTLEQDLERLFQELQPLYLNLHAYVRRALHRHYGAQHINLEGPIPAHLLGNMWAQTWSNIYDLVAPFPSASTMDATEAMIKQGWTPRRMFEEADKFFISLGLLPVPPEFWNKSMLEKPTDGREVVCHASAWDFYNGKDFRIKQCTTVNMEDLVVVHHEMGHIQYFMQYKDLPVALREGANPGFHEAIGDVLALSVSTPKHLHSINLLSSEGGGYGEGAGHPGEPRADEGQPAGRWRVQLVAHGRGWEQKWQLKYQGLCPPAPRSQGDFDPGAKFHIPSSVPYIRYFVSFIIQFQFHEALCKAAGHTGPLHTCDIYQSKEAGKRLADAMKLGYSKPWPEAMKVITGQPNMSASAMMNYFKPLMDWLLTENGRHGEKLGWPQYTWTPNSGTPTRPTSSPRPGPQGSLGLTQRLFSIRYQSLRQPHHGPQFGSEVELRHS

For the molecule `CC[C@H](C)[C@H](N)C(=O)N[C@@H](Cc1ccc(O)cc1)C(=O)N[C@@H](CO)C(=O)N1CCC[C@H]1C(=O)O` [TP10, Ile-Tyr-Ser-Pro] (H-IYSP-OH), the “toxicity to HUVECs (in words)” value in series [1] was “no significant toxicity”. Further, the NO level turned out to be 39.27 ± 1.96 μmol/gprot in series [2] (setting [10]) and 46.78 ± 2.47 μmol/gprot in series [2] (peptide 200 μM). Moreover, the ET-1 level is given as 109.12 ± 2.95 pg/mL in series [3] (setting [10]) and 96.15 ± 1.35 pg/mL in [3] (peptide 200 μM). Further, in series [4] (8 h, 200 μM), the “cell viability of H2O2-damaged HUVECs” value is reported as 61.58 ± 3.04%. In series [5] (peptide 200 μM for 8 h), this molecule displayed an MDA level of 19.11 ± 0.88 nmol/mg prot. For the same molecule, the SOD level in series [6] (peptide 100 μM for 8 h) was determined as 154.35 ± 3.68 U/mg prot; in series [6] (peptide 200 μM for 8 h), 172.93 ± 6.58 U/mg prot. Further, the GSH-Px level came out at 38.91 ± 1.17 U/mg prot in series [7] (peptide 100 μM for 8 h) and 44.69 ± 2.09 U/mg prot in [7] (peptide 200 μM for 8 h).

Take `CC(C)C[C@H](N)C(=O)N[C@@H](CO)C(=O)N[C@@H](Cc1ccccc1)C(=O)N[C@@H](CCCNC(=N)N)C(=O)O` [TP7, Leu-Ser-Phe-Arg] (H-LSFR-OH): the “toxicity to HUVECs (in words)” value in series [1] was “no significant toxicity”. The results for the NO level in series [2] (setting [10]) and in series [2] (peptide 200 μM) were 35.18 ± 1.2 μmol/gprot and 45.91 ± 1.68 μmol/gprot, respectively. The ET-1 level turned out to be 110.36 ± 1.76 pg/mL in series [3] (setting [10]) and 101.49 ± 2.05 pg/mL in [3] (peptide 200 μM). Moreover, in [4] (8 h, 200 μM), the “cell viability of H2O2-damaged HUVECs” value stood at 59.15 ± 2.81%. Besides, the MDA level in [5] (peptide 200 μM for 8 h) came out at 20.68 ± 1.06 nmol/mg prot. In addition, the SOD level in series [6] (peptide 100 μM for 8 h) came out at 141.79 ± 3.96 U/mg prot; in series [6] (peptide 200 μM for 8 h), 158.79 ± 5.93 U/mg prot. Further, the GSH-Px level in series [7] (peptide 100 μM for 8 h) came to 35.61 ± 1.23 U/mg prot; in series [7] (peptide 200 μM for 8 h) it was 40.93 ± 2.15 U/mg prot.

The molecule TP6, Ile-Cys-Tyr (ICY) (peptide) yielded an ACEi activity (IC50): inhibition of ACE hydrolysis of FAPGG, absorbance at 340 nm, 37°C, pH 8.3 in [8] of 0.48 mg/mL.

As to FRKE, the “IC50 on ACE” value in series [9] (ACEi peptides from Antarctic krill) is 6970 µg/mL.

For the molecule MLVFAV, the “IC50 on ACE” value in series [9] (ACEi peptide from Katsuwonus pelamis) was 2360 µg/mL.

Regarding `CC[C@H](C)[C@H](N)C(=O)N[C@@H](CS)C(=O)N[C@@H](Cc1ccc(O)cc1)C(=O)O` [TP6, Ile-Cys-Tyr] (H-Ile-Cys-Tyr-OH), the figures for the NO level in series [2] (setting [10]) and in series [2] (peptide 200 μM) were 42.21 ± 2.66 μmol/gprot and 50.63 ± 1.95 μmol/gprot, respectively. Further, the results for the ET-1 level in series [3] (setting [10]) and in series [3] (peptide 200 μM) were 105.18 ± 3.29 pg/mL and 92.57 ± 2.68 pg/mL, respectively. Moreover, the “cell viability of H2O2-damaged HUVECs” value in [4] (8 h, 200 μM) is on record as 69.76 ± 3.06%. Besides, the MDA level in [5] (peptide 200 μM for 8 h) stood at 17.08 ± 0.96 nmol/mg prot. For the same molecule, the SOD level in [6] (peptide 100 μM for 8 h) is reported as 168.77 ± 5.32 U/mg prot; in series [6] (peptide 200 μM for 8 h), 184.06 ± 7.19 U/mg prot. The GSH-Px level in series [7] (peptide 100 μM for 8 h) turned out to be 42.69 ± 1.32 U/mg prot; in [7] (peptide 200 μM for 8 h), 51.28 ± 3.16 U/mg prot.

For the molecule `OO` [H2O2], in [4] (H2O2 400 μM alone, 24 h (oxidative damage model), mean ± SD, n = 3), the “cell viability of HUVECs (% of the blank group)” value is given as 50.48 ± 1.96%.

In the case of LGPLGHQ, the “IC50 on ACE” value in series [9] (ACEi peptide from skate) is 4220 µg/mL.

Regarding `N[C@@H](CCC(=O)N[C@@H](CS)C(=O)NCC(=O)O)C(=O)O` [GSH, glutathione, reference compound], the “cell viability of H2O2-damaged HUVECs” value in series [4] (GSH positive control (concentration not given), then H2O2 400 μM for 24 h, mean ± SD, n = 3) is 75.69 ± 3.52%. The MDA level in [5] (GSH positive control (concentration not given)) was 15.28 ± 0.61 nmol/mg prot.

On to EHPVL, for which the “IC50 on ACE” value in [9] (ACEi peptide from stone fish) is 1680 µg/mL.

`NC[C@H](O)c1ccc(O)c(O)c1` [NE, Norepinephrine, reference compound] gave an NO level in series [2] (NE 0.5 μM alone) of 22.91 ± 1.26 μmol/gprot. The molecule also returned an ET-1 secretion in series [3] (NE 0.5 μM alone) of 148.35 ± 3.87 pg/mL.

B1: TP10, Ile-Tyr-Ser-Pro (IYSP) (peptide)
peptide: IYSP
As to B1, in series [8], the ACEi activity (IC50): inhibition of ACE hydrolysis of FAPGG, absorbance at 340 nm, 37°C, pH 8.3 stood at 0.76 mg/mL.

B2: TP7, Leu-Ser-Phe-Arg (LSFR) (peptide)
peptide: LSFR
The molecule B2 gave an ACEi activity (IC50): inhibition of ACE hydrolysis of FAPGG, absorbance at 340 nm, 37°C, pH 8.3 in series [8] of 0.59 mg/mL.
